Assays:
DA-autoreceptors = test: Inhibition of spontaneous locomotor activity (motility inhibition) in rats; format: in vivo, rat (Wistar); conditions: doses calculated as the free amine
DA receptors = test: DA stimulating properties / effect at pre- and postsynaptic DA receptors (general statement); format: in vivo; conditions: statement in words
DA-receptor = test: Contralateral circling in rats with unilateral 6-hydroxy-DA (6-OHDA) lesions; format: in vivo, rat (Wistar); conditions: 6-OHDA-lesioned rats, doses calculated as the free amine
Experimental: Furthermore, the potency of the drug to induce contralateral circling behaviour in 6-hydroxy-DA-lesioned rats was determined. The specificity of this receptor resembles that of the […] DA receptors mediating motility inhibition.
The experiments were made according to published methods, using rats of the Wistar strain.
Therefore, also the ability of a test compound to induce contralateral circling in rats with unilateral 6-hydroxy-DA lesions was evaluated (loc cit.).

[1] = system: postsynaptic DA-receptors; conditions: reversal of locomotor depression in DA-depleted rats; statement in words; cited from earlier work
[2] = system: postsynaptic DA-receptors; test: Reversal of locomotor depression (hypomotility) in reserpine plus alpha-methyl-p-tyrosine pretreated rats; format: in vivo, rat (Wistar)

Row | SMILES | Motility Inh. rats (sc) ED50 (DA-autoreceptors) | DA stimulating properties (DA receptors) | 6-OHDA Contr. Circle. rats (sc) ED50 (DA-receptor) | effect in reserpine plus alpha-methyl-p-tyrosine model [1] | Reserpin α-Mt Rev. rats (sc) ED50 [2]
1 | CCCN(CCC)CC1CCc2ccccc21 (stereo not shown) [Lu 21-091, N,N-Dipropyl-1-indanmethylamine] | > 62 µmol/kg | without any DA stimulating properties | > 62 µmol/kg | – | –
2 | CCCN1CCC[C@@H](c2cccc(O)c2)C1 [(--)-3-PPP, reference compound] | 4.2 to 11 µmol/kg | – | 0.77 µmol/kg | without effect | > 67 µmol/kg
